Source: PubChem BioAssay (NCI)
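GI50 marks 50% less growth. The concentration for full growth arrest is given as TGI.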

How the values were obtained:
Assay in all cases: NCI-60 cell line screen, 384-well format
A498 renal = system: A498 renal
A549 NSCLC = system: A549 NSCLC
ACHN renal = system: ACHN renal
BT-549 breast = system: BT-549 breast
COLO 205 colon = system: COLO 205 colon
DU-145 prostate = system: DU-145 prostate
EKVX NSCLC = system: EKVX NSCLC
HCC-2998 colon = system: HCC-2998 colon
HCT-116 colon = system: HCT-116 colon
HL-60(TB) leukemia = system: HL-60(TB) leukemia
HOP-62 NSCLC = system: HOP-62 NSCLC
HOP-92 NSCLC = system: HOP-92 NSCLC
HS 578T breast = system: HS 578T breast
IGROV1 ovarian = system: IGROV1 ovarian
K-562 leukemia = system: K-562 leukemia
LOX IMVI melanoma = system: LOX IMVI melanoma
MALME-3M melanoma = system: MALME-3M melanoma
MCF7 breast = system: MCF7 breast
MDA-MB-231 breast = system: MDA-MB-231 breast
MDA-MB-435 melanoma = system: MDA-MB-435 melanoma
MOLT-4 leukemia = system: MOLT-4 leukemia
NCI-H226 lung = system: NCI-H226 lung
NCI-H322M lung = system: NCI-H322M lung
NCI-H460 NSCLC = system: NCI-H460 NSCLC
NCI-H522 lung = system: NCI-H522 lung
NCI/ADR-RES ovarian = system: NCI/ADR-RES ovarian
OVCAR-4 ovarian = system: OVCAR-4 ovarian
OVCAR-5 ovarian = system: OVCAR-5 ovarian
OVCAR-8 ovarian = system: OVCAR-8 ovarian
PC-3 prostate = system: PC-3 prostate
RXF 393 renal = system: RXF 393 renal
SF-268 CNS = system: SF-268 CNS
SF-295 CNS = system: SF-295 CNS
SF-539 CNS = system: SF-539 CNS
SK-MEL-2 melanoma = system: SK-MEL-2 melanoma
SK-MEL-28 melanoma = system: SK-MEL-28 melanoma
SK-MEL-5 melanoma = system: SK-MEL-5 melanoma
SN12C renal = system: SN12C renal
SNB-19 CNS = system: SNB-19 CNS
SNB-75 CNS = system: SNB-75 CNS
SR leukemia = system: SR leukemia
SW-620 colon = system: SW-620 colon
T-47D breast = system: T-47D breast
TK-10 renal = system: TK-10 renal
U251 glioblastoma = system: U251 glioblastoma
UACC-257 melanoma = system: UACC-257 melanoma
UO-31 renal = system: UO-31 renal

Q: How did the GI50 (A498 renal) turn out when c1cn2cc(-c3ccc4cn[nH]c4c3)nc(Nc3ccc(N4CCOCC4)cc3)c2n1 was run?
A: 3.26 µM

Q: What about the TGI (A498 renal) of the same compound?
A: 16.6 µM

Q: And the GI50 (A549 NSCLC)?
A: 17.1 µM

Q: And the TGI (A549 NSCLC)?
A: > 53.8 µM

Q: What about the GI50 (ACHN renal) of the same compound?
A: 10.7 µM

Q: And the TGI (ACHN renal)?
A: 25.1 µM

Q: And the GI50 (BT-549 breast)?
A: 11.2 µM

Q: What about the TGI (BT-549 breast) of the same compound?
A: 23.5 µM

Q: And the GI50 (COLO 205 colon)?
A: 37.8 µM

Q: And the TGI (COLO 205 colon)?
A: > 100 µM

Q: What about the GI50 (DU-145 prostate) of the same compound?
A: 10 µM

Q: What about the TGI (DU-145 prostate) of the same compound?
A: 22.7 µM

Q: What about the GI50 (EKVX NSCLC) of the same compound?
A: 9.48 µM

Q: And the TGI (EKVX NSCLC)?
A: 25.1 µM

Q: What about the GI50 (HCC-2998 colon) of the same compound?
A: 17.5 µM

Q: And the TGI (HCC-2998 colon)?
A: > 85.7 µM

Q: What about the GI50 (HCT-116 colon) of the same compound?
A: 15 µM

Q: What about the TGI (HCT-116 colon) of the same compound?
A: 34.3 µM

Q: And the GI50 (HL-60(TB) leukemia)?
A: > 100 µM

Q: And the TGI (HL-60(TB) leukemia)?
A: > 100 µM

Q: And the GI50 (HOP-62 NSCLC)?
A: 9.54 µM

Q: And the TGI (HOP-62 NSCLC)?
A: 22.2 µM

Q: What about the GI50 (HOP-92 NSCLC) of the same compound?
A: 5.8 µM

Q: What about the TGI (HOP-92 NSCLC) of the same compound?
A: 19.1 µM

Q: What about the GI50 (HS 578T breast) of the same compound?
A: 1.87 µM

Q: What about the TGI (HS 578T breast) of the same compound?
A: 8.11 µM

Q: And the GI50 (IGROV1 ovarian)?
A: 14.1 µM

Q: And the TGI (IGROV1 ovarian)?
A: 37.9 µM

Q: And the GI50 (K-562 leukemia)?
A: > 100 µM

Q: And the TGI (K-562 leukemia)?
A: > 100 µM

Q: And the GI50 (LOX IMVI melanoma)?
A: 15.4 µM

Q: What about the TGI (LOX IMVI melanoma) of the same compound?
A: 36.6 µM

Q: What about the GI50 (MALME-3M melanoma) of the same compound?
A: 6.24 µM

Q: And the TGI (MALME-3M melanoma)?
A: 19.4 µM

Q: What about the GI50 (MCF7 breast) of the same compound?
A: 8.62 µM

Q: And the TGI (MCF7 breast)?
A: 30.2 µM

Q: What about the GI50 (MDA-MB-231 breast) of the same compound?
A: 10.1 µM

Q: And the TGI (MDA-MB-231 breast)?
A: 21.9 µM

Q: And the GI50 (MDA-MB-435 melanoma)?
A: 22.6 µM

Q: And the TGI (MDA-MB-435 melanoma)?
A: > 75.5 µM

Q: And the GI50 (MOLT-4 leukemia)?
A: 48 µM

Q: And the TGI (MOLT-4 leukemia)?
A: > 100 µM

Q: What about the GI50 (NCI-H226 lung) of the same compound?
A: 9.38 µM

Q: And the TGI (NCI-H226 lung)?
A: 23 µM

Q: And the GI50 (NCI-H322M lung)?
A: 12.3 µM

Q: What about the TGI (NCI-H322M lung) of the same compound?
A: 37.5 µM

Q: What about the GI50 (NCI-H460 NSCLC) of the same compound?
A: 11.1 µM

Q: What about the TGI (NCI-H460 NSCLC) of the same compound?
A: 24.6 µM

Q: What about the GI50 (NCI-H522 lung) of the same compound?
A: 3.46 µM

Q: And the TGI (NCI-H522 lung)?
A: 12.8 µM

Q: And the GI50 (NCI/ADR-RES ovarian)?
A: 11.7 µM

Q: And the TGI (NCI/ADR-RES ovarian)?
A: 29.6 µM

Q: And the GI50 (OVCAR-4 ovarian)?
A: 6.52 µM

Q: And the TGI (OVCAR-4 ovarian)?
A: 20 µM

Q: What about the GI50 (OVCAR-5 ovarian) of the same compound?
A: 12.8 µM

Q: What about the TGI (OVCAR-5 ovarian) of the same compound?
A: 30.3 µM

Q: What about the GI50 (OVCAR-8 ovarian) of the same compound?
A: 4.82 µM

Q: What about the TGI (OVCAR-8 ovarian) of the same compound?
A: 17.1 µM

Q: What about the GI50 (PC-3 prostate) of the same compound?
A: 14.1 µM

Q: And the TGI (PC-3 prostate)?
A: 28.7 µM

Q: And the GI50 (RXF 393 renal)?
A: 2.44 µM

Q: And the TGI (RXF 393 renal)?
A: 13.3 µM

Q: And the GI50 (SF-268 CNS)?
A: 4.45 µM

Q: What about the TGI (SF-268 CNS) of the same compound?
A: 16.9 µM

Q: What about the GI50 (SF-295 CNS) of the same compound?
A: 13.7 µM

Q: And the TGI (SF-295 CNS)?
A: 27.4 µM

Q: What about the GI50 (SF-539 CNS) of the same compound?
A: 4.6 µM

Q: And the TGI (SF-539 CNS)?
A: 16.5 µM

Q: What about the GI50 (SK-MEL-2 melanoma) of the same compound?
A: 1.67 µM

Q: And the TGI (SK-MEL-2 melanoma)?
A: 8.99 µM

Q: And the GI50 (SK-MEL-28 melanoma)?
A: 12.4 µM

Q: And the TGI (SK-MEL-28 melanoma)?
A: 29.6 µM

Q: What about the GI50 (SK-MEL-5 melanoma) of the same compound?
A: 11.3 µM

Q: And the TGI (SK-MEL-5 melanoma)?
A: 32.8 µM

Q: And the GI50 (SN12C renal)?
A: 10 µM

Q: What about the TGI (SN12C renal) of the same compound?
A: 22.6 µM

Q: What about the GI50 (SNB-19 CNS) of the same compound?
A: 8.81 µM

Q: And the TGI (SNB-19 CNS)?
A: 21.4 µM

Q: What about the GI50 (SNB-75 CNS) of the same compound?
A: 2.15 µM

Q: And the TGI (SNB-75 CNS)?
A: 9.11 µM

Q: What about the GI50 (SR leukemia) of the same compound?
A: 5.01 µM

Q: What about the TGI (SR leukemia) of the same compound?
A: 14.5 µM

Q: What about the GI50 (SW-620 colon) of the same compound?
A: 33.1 µM

Q: What about the TGI (SW-620 colon) of the same compound?
A: > 100 µM

Q: What about the GI50 (T-47D breast) of the same compound?
A: 3.73 µM

Q: What about the TGI (T-47D breast) of the same compound?
A: 21.2 µM

Q: And the GI50 (TK-10 renal)?
A: 5.67 µM

Q: And the TGI (TK-10 renal)?
A: 22 µM

Q: And the GI50 (U251 glioblastoma)?
A: 9.72 µM

Q: And the TGI (U251 glioblastoma)?
A: 25.4 µM

Q: And the GI50 (UACC-257 melanoma)?
A: 11.5 µM

Q: What about the TGI (UACC-257 melanoma) of the same compound?
A: 27.6 µM

Q: What about the GI50 (UO-31 renal) of the same compound?
A: 12.4 µM

Q: And the TGI (UO-31 renal)?
A: 32 µM
